Assay results reported in the supplement of paper PMC10307832.

Legend:
Experiment in all cases: relative viability (nuclei count vs DMSO), 5 days (fraction); higher = more cells survive
XMD14-99 + Foretinib = compound: CN1CCN(CC1)C2=CC(=C(C=C2)NC3=NC(=C(S3)C(=O)C4=C(C=CC=C4Cl)Cl)N)OC [XMD14-99] + COc1cc2c(Oc3ccc(NC(=O)C4(C(=O)Nc5ccc(F)cc5)CC4)cc3F)ccnc2cc1OCCCN1CCOCC1 [Foretinib] (partner 0.25 µM)
In short: (§1)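 Relative viability divides the nuclei count in treated wells by that in vehicle wells. Lung cancer cell lines were seeded in 1536-well plates, dosed by pin tool the next day, and fixed and stained after 5 days in one step with final 0.05% Triton X-100, 1% formaldehyde and 1 ug/ml Hoechst. Dosing was a single drug or a fixed anchor-drug dose plus five library-drug doses (not always all listed) in √10 steps, and values are medians of duplicate plates imaged at 4×.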

AZD1208 + OSI-027 = compound: N[C@@H]1CCCN(c2c(/C=C3\SC(=O)NC3=O)cccc2-c2ccccc2)C1 [AZD1208] + COc1cccc2cc(-c3nc([C@H]4CC[C@H](C(=O)O)CC4)n4ncnc(N)c34)[nH]c12 [OSI-027] (partner 0.5 µM)
In short: as §1

AZD1208 + Lapatinib = compound: N[C@@H]1CCCN(c2c(/C=C3\SC(=O)NC3=O)cccc2-c2ccccc2)C1 [AZD1208] + CS(=O)(=O)CCNCc1ccc(-c2ccc3ncnc(Nc4ccc(OCc5cccc(F)c5)c(Cl)c4)c3c2)o1 [Lapatinib] (partner 2 µM)
In short: as §1

AZD1208 + Pemetrexed = compound: N[C@@H]1CCCN(c2c(/C=C3\SC(=O)NC3=O)cccc2-c2ccccc2)C1 [AZD1208] + Nc1nc2[nH]cc(CCc3ccc(C(=O)N[C@@H](CCC(=O)O)C(=O)O)cc3)c2c(=O)[nH]1 [Pemetrexed] (partner 0.2 µM)
In short: as §1

Cell Line	relative viability (XMD14-99 + Foretinib; first compound 0.08 µM)	relative viability (XMD14-99 + Foretinib; first compound 0.8 µM)	relative viability (XMD14-99 + Foretinib; first compound 2.53 µM)	relative viability (XMD14-99 + Foretinib; first compound 8 µM)	relative viability (AZD1208 + OSI-027; first compound 0.08 µM)	relative viability (AZD1208 + OSI-027; first compound 0.253 µM)	relative viability (AZD1208 + OSI-027; first compound 0.8 µM)	relative viability (AZD1208 + OSI-027; first compound 2.53 µM)	relative viability (AZD1208 + OSI-027; first compound 8 µM)	relative viability (AZD1208 + Lapatinib; first compound 0.08 µM)	relative viability (AZD1208 + Lapatinib; first compound 0.253 µM)	relative viability (AZD1208 + Lapatinib; first compound 0.8 µM)	relative viability (AZD1208 + Lapatinib; first compound 2.53 µM)	relative viability (AZD1208 + Lapatinib; first compound 8 µM)	relative viability (AZD1208 + Pemetrexed; first compound 0.08 µM)	relative viability (AZD1208 + Pemetrexed; first compound 0.253 µM)	relative viability (AZD1208 + Pemetrexed; first compound 0.8 µM)	relative viability (AZD1208 + Pemetrexed; first compound 2.53 µM)	relative viability (AZD1208 + Pemetrexed; first compound 8 µM)
NCI-H2126	1.19	1.13	1.2	0.832	0.74	0.704	0.68	0.613	0.674	0.796	0.689	0.63	0.691	0.525	0.649	0.734	0.652	0.634	0.614
NCI-H2170	0.978	1.02	1.02	0.921	0.751	0.653	0.636	0.625	0.535	0.263	0.257	0.257	0.265	0.299	0.244	0.289	0.688	0.275	0.268
NCI-H2228	0.994	0.806	0.83	0.444	0.5	0.586	0.406	0.308	0.304	1.03	1.3	0.971		0.652	0.328	0.368	0.357	0.371	0.344
NCI-H2347	0.913	0.92	1	0.369	0.321	0.344	0.329	0.302	0.35	1.09	1.11	0.896	0.843	0.97	0.447	0.423	0.468	0.439	0.444
NCI-H2405	1.04	1.03	1.02	0.838	0.52	0.575	0.56	0.607	0.532	1.12	1.05	0.984	1.04	0.841	1.01	1	1.02	1.02	0.95
NCI-H3122	0.948	0.964	0.847	0.756	0.842	0.856	0.768	0.862	0.606	1.08	0.984	1	1.05	1.15	0.201	0.187	0.195	0.207	0.187
PC-3 [JPC-3]	1.06	0.957	0.858	0.762	0.8	0.698	0.762	0.702	0.628	0.424	0.412	0.451	0.413	0.389	1.22	1.04	1.09	1.18	1.2
PC-14	0.964	0.969	0.864	0.852	0.838	0.881	0.722	0.586	0.621	0.298	0.417	0.295	0.327	0.317	0.125	0.132	0.14	0.153	0.165
RERF-LC-KJ	0.462	0.908	0.867	0.803	0.511	0.558	0.512	0.518	0.41	0.819	0.896	0.698	0.679	0.562	0.515	0.441	0.505	0.476	0.491
SK-LU-1	0.818	0.803	0.758	0.477	0.283	0.337	0.285	0.316	0.248	0.802	0.864	0.826	0.831	0.839	0.956	1.02	0.988	0.944	0.869
SK-MES-1	1.01	0.927	0.971	0.745	0.541	0.509	0.492	0.541	0.461	0.407	0.418	0.421	0.415	0.374	0.993	0.999	0.956	0.842	0.864
SW 1573	0.814	0.992	0.861	0.824	0.397	0.548	0.451	0.381	0.348	1.02	1.07	0.959	1.01	1.05	0.782	0.748	0.717	0.646	0.749
